Reference: US7919508B2, “3-piperidinylisochroman-5-ols as dopamine agonists” (Aventis Pharmaceuticals Inc., priority 2004, dated 2011)
Structures can show the parent of a compound that is named as a salt.

Columns and labels:
[1] = molecular target: T1, human dopamine D1 receptor (Homo sapiens, UniProt P21728); assay: [3H]-SCH-23390 binding to cloned human dopamine D1 receptors (CHO cell membranes); settings: competitive binding, [3H]-SCH-23390, cloned human D1 in CHO membranes; read-out: D1 affinity Ki
T1 construct: A 1.4 Kb Hind III to Xho I fragment was subcloned into the vector pMMLV; expressed in transfected cells; host or cells: CHO cells, clone CHO-D1M#9 (plasmid pHD1MMLV), membranes
Procedure: [^3H]-SCH-23390 Binding to Cloned Human Dopamine D1 Receptors
Determination of relative binding affinity of potential neuropsychiatric and other agents for the human dopamine D1 receptor.
The human D, cDNA was obtained from the laboratory of Dr. Marc Caron in the vector pCMV5. A 1.4 Kb Hind III to Xho I fragment was subcloned into the vector pMMLV. The plasmid pHD1MMLV was then sequenced completely. Transient transfections in COS-7 cells were performed and D1 specific binding was obtained. The construct pHD1MMLV was then transfected stably into CHO cells and 72 G418-resistant clones were isolated. High expressors were identified by mRNA dot blot analysis. Six high expressors were further characterized by binding and then clone CHO-D1M#9 was chosen for detailed pharmacological characterization. This clone was then grown in suspension culture for the purpose of obtaining enough protein to accommodate several months of screening.
B. Cell Culture Conditions
• 1. […] Cells are transferred to suspension culture when at least […] are available (this allows for 300,000 cells/ml in a 50 ml spinner flask; this is the ideal suspension density). Cells are removed from flasks with trypsin, spun down at 1000×G and resuspended the pellet in fresh medium: • 50% CHO-SFM-II+50% Ham's F12 w/10% FBS (final FBS conc. 5%)+400 μg/ml G418+1% P/S. • 3. After the transfer to suspension culture, growth is monitored and cell viability is assessed using trypan blue exclusion. Total and viable cell count on 5 sectors of the hemocytometer are recorded. When the viable cell density reaches 600,000 cell/ml, the volume is doubled. • 4. After 1 week of growth in the 50/50 medium, the cells are spun down and transferred to a new spinner flask and replaced with 75% CHO-SFM II/25% Ham's F12+10% FBS plus the pen-strep and G418. Thereafter every 3 days, the medium is replaced with new medium containing a decreasing amount of FBS as follows:
• 5. The final maintenance culturing medium is made up as follows: • A stock mixture of 10 ml of pen-strep, 0.5 ml of […] (active; final concentration: 200 μg/ml) G418 and 1 ml of FBS are mixed and filtered and refrigerated. A volume (11.5 ml) of this mixture is added to a freshly opened 1 L bottle of CHO-SFM II. C. Membrane Preparation
Cells are harvested into 250 ml centrifuge tubes and spun down at 1200×G. The medium is removed and 100 ml PBS (phosphate-buffered saline) is added to each centrifuge tube; cells are resuspended and spun down again. The PBS is removed and the final pellet is homogenized with a polytron on ice at a medium setting.
The membrane suspension is diluted in water and samples (10, 50 and 100 μl; q.s. to 100 μl with water) are diluted with 100 μl of 1% SDS. The sample is vortexed and allowed to stand for 5 min. Two aliquots each of the solubilized protein sample are placed in clean 13×100 test tubes for the assay. Instructions are followed as outlined in the BioRad DC protein determination kit (Catalog # 500-0112). OD readings that fall between 0.1-0.5 (mid-range of standard curve) should typically be used for calculations. Protein concentrations are calculated from a standard curve using bovine serum albumin as standard by linear regression and interpolation.
Following cell harvesting and protein determination, the homogenate is diluted with 10% DMSO to the correct volume based on Bmax and relative size of individual experiments to be conducted. The concentrated protein is stored in cryogenic vials in aliquots of 1-1.5 ml. Samples may be stored in −80° C. freezer or in liquid nitrogen.

[2] = molecular target: human dopamine D2Long (D2L) receptors (Homo sapiens, UniProt P14416)
Sequence of human dopamine D2Long (D2L) receptors (P14416 whole entry): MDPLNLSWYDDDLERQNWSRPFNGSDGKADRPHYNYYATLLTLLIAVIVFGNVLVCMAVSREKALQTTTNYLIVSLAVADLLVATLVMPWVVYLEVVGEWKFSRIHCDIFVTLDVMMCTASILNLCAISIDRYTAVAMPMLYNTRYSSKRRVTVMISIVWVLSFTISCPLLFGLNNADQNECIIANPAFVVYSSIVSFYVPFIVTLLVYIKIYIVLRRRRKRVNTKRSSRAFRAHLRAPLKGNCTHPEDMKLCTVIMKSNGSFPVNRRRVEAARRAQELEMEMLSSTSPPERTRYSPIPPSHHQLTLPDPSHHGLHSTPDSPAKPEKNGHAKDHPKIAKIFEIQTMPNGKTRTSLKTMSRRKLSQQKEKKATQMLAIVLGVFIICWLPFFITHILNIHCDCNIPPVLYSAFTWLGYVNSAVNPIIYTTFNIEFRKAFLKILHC

T1 sequence (P21728 whole entry, the tested form may be a part): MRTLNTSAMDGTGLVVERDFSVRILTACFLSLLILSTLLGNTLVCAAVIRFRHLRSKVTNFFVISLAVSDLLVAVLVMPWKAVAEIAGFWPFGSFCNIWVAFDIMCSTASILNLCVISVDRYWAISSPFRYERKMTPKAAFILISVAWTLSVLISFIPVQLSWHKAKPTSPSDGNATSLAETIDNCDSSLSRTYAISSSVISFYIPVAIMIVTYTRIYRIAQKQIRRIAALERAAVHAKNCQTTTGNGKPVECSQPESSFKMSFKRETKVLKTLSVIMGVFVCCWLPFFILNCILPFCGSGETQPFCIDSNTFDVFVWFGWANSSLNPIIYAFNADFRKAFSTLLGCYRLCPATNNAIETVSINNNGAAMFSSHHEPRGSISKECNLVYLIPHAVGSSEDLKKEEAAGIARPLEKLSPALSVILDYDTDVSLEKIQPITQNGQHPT

SMILES	Ki [1] [nM]	Ki [2] [nM]
CCC(NC(=O)c1ccc(C)cc1)C(C)CN1CCC([C@@H]2Cc3c(ccc(C)c3O)[C@H](CN)O2)CC1 (stereo partly drawn) [Example 14, N-{3-[4-((1R,3S)-1-Aminomethyl-5-hydroxy-6-methyl-isochroman-3-yl)-piperidin-1-yl]-1-ethyl-2-methyl-propyl}-4-methyl-benzamide dihydrochloride]	274	≥ 100000
Cc1ccc2c(c1O)C[C@@H](C1CCN(CCC(C)NC(=O)c3ccc([N+](=O)[O-])cc3)CC1)O[C@H]2CN (stereo partly drawn) [Example 24, N-{3-[4-((1R,3S)-1-Aminomethyl-5-hydroxy-6-methyl-isochroman-3-yl)-piperidin-1-yl]-1-methyl-propyl}-4-nitro-benzamide dihydrochloride]	240	638
Cc1ccc2c(c1O)C[C@@H](C1CCN(S(=O)(=O)c3ccccc3)CC1)O[C@H]2CN [Example 141, (1R,3S)-1-Aminomethyl-3-(1-benzenesulfonyl-piperidin-4-yl)-6-methyl-isochroman-5-ol hydrochloride]	193	≥ 100000
CCN(CC)C(=O)N1CCC([C@@H]2Cc3c(ccc(C)c3O)[C@H](CN)O2)CC1 [Example 136, 4-((1R,3S)-1-Aminomethyl-5-hydroxy-6-methyl-isochroman-3-yl)-piperidine-1-carboxylic acid diethylamide hydrochloride]	162	≥ 100000
Cc1ccc2c(c1O)C[C@@H](C1CCN(S(=O)(=O)c3ccc(Cl)cc3Cl)CC1)O[C@H]2CN [Example 149, (1R,3S)-1-Aminomethyl-3-[1-(2,4-dichloro-benzenesulfonyl)-piperidin-4-yl]-6-methyl-isochroman-5-ol hydrochloride]	213	589
Cc1ccc2c(c1O)C[C@@H](C1CCN(S(=O)(=O)c3ccc(-c4ccccc4)cc3)CC1)O[C@H]2CN [Example 152, (1R,3S)-1-Aminomethyl-3-[1-(biphenyl-4-sulfonyl)-piperidin-4-yl]-6-methyl-isochroman-5-ol hydrochloride]	169	≥ 100000
CCCCS(=O)(=O)N1CCC([C@@H]2Cc3c(ccc(C)c3O)[C@H](CN)O2)CC1 [Example 154, (1R,3S)-1-Aminomethyl-3-[1-(butane-1-sulfonyl)-piperidin-4-yl]-6-methyl-isochroman-5-ol hydrochloride]	270	≥ 100000
Cc1ccc2c(c1O)C[C@@H](C1CCN(C(=O)N3CCOCC3)CC1)O[C@H]2CN [Example 134, [4-((1R,3S)-1-Aminomethyl-5-hydroxy-6-methyl-isochroman-3-yl)-piperidin-1-yl]-morpholin-4-yl-methanone hydrochloride]	240	≥ 100000
CCNC[C@@H]1O[C@H](C2CCN(Cc3ccccc3)CC2)Cc2c1ccc(C)c2O [Example 172, (1R,3S)-3-(1-Benzyl-piperidin-4-yl)-1-ethylaminomethyl-6-methyl-isochroman-5-ol]	522	279
Cc1ccc2c(c1O)C[C@@H](C1CCN(S(=O)(=O)c3ccccc3C(F)(F)F)CC1)O[C@H]2CN [Example 143, (1R,3S)-1-Aminomethyl-6-methyl-3-[1-(2-trifluoromethyl-benzenesulfonyl)-piperidin-4-yl]-isochroman-5-ol hydrochloride]	167	777
Cc1ccc2c(c1O)C[C@@H](C1CCN(S(=O)(=O)C[C@]34CC[C@H](CC3=O)C4(C)C)CC1)O[C@H]2CN [Example 163, 1(S)-[4-((1R,3S)-1-Aminomethyl-5-hydroxy-6-methyl-isochroman-3-yl)-piperidine-1-sulfonylmethyl]-7,7-dimethyl-bicyclo[2.2.1]heptan-2-one hydrochloride]	320	≥ 100000
CCN(C)C[C@@H]1O[C@H](C2CCN(Cc3ccccc3)CC2)Cc2c1ccc(C)c2O [Example 173, (1R,3S)-3-(1-Benzyl-piperidin-4-yl)-1-[(ethyl-methyl-amino)-methyl]-6-methyl-isochroman-5-ol]	425	241
Cc1ccccc1CN1CCC([C@@H]2Cc3c(ccc(C)c3O)[C@H](CN)O2)CC1 [Example 64, (1R,3S)-1-Aminomethyl-6-methyl-3-[1-(2-methyl-benzyl)-piperidin-4-yl]-isochroman-5-ol dihydrochloride]	198	576
CCCN(CCC)C[C@@H]1O[C@H](C2CCN(Cc3ccccc3)CC2)Cc2c1ccc(C)c2O [Example 188, (1R,3S)-3-(1-Benzyl-piperidin-4-yl)-1-dipropylaminomethyl-6-methyl-isochroman-5-ol dihydrochloride]	586	140
Cc1ccc2c(c1O)C[C@@H](C1CCN(C(=O)N3c4ccccc4Sc4ccccc43)CC1)O[C@H]2CN [Example 137, [4-((1R,3S)-1-Aminomethyl-5-hydroxy-6-methyl-isochroman-3-yl)-piperidin-1-yl]-phenothiazin-10-yl-methanone hydrochloride]	412	163

Now from value to molecule:

Ki [1] [nM]	Ki [2] [nM]	SMILES
33	450	Cc1ccc2c(c1O)C[C@@H](C1CCN(Cc3cc(F)cc(C(F)(F)F)c3)CC1)O[C@H]2CN [Example 84, (1R,3S)-1-Aminomethyl-3-[1-(3-fluoro-5-trifluoromethyl-benzyl)-piperidin-4-yl]-6-methyl-isochroman-5-ol dihydrochloride]
48.7	565	Cc1ccc2c(c1O)C[C@@H](C1CCN(Cc3cccc(C(F)(F)F)c3F)CC1)O[C@H]2CN [Example 80, (1R,3S)-1-Aminomethyl-3-[1-(2-fluoro-3-trifluoromethyl-benzyl)-piperidin-4-yl]-6-methyl-isochroman-5-ol dihydrochloride]
81	310	Cc1ccc2c(c1O)C[C@@H](C1CCN(Cc3cccc(C(F)(F)F)c3Cl)CC1)O[C@H]2CN [Example 79, (1R,3S)-1-Aminomethyl-3-[1-(2-chloro-3-trifluoromethyl-benzyl)-piperidin-4-yl]-6-methyl-isochroman-5-ol dihydrochloride]
96.7	232	COc1ccccc1CN1CCC([C@@H]2Cc3c(ccc(C)c3O)[C@H](CN)O2)CC1 [Example 68, (1R,3S)-1-Aminomethyl-3-[1-(2-methoxy-benzyl)-piperidin-4-yl]-6-methyl-isochroman-5-ol dihydrochloride]
47.3	367	Cc1ccc2c(c1O)C[C@@H](C1CCN(Cc3ccc(F)cc3F)CC1)O[C@H]2CN [Example 50, (1R,3S)-1-Aminomethyl-3-[1-(2,4-difluoro-benzyl)-piperidin-4-yl]-6-methyl-isochroman-5-ol dihydrochloride]
146	288	Cc1ccc2c(c1O)C[C@@H](C1CCN(S(=O)(=O)c3ccc(C(C)C)cc3)CC1)O[C@H]2CN [Example 145, (1R,3S)-1-Aminomethyl-3-[1-(4-isopropyl-benzenesulfonyl)-piperidin-4-yl]-6-methyl-isochroman-5-ol hydrochloride]
158	172	Cc1ccc2c(c1O)C[C@@H](C1CCN(Cc3ccccc3)CC1)O[C@H]2CN(C)C [Example 169, (1R,3S)-3-(1-Benzyl-piperidin-4-yl)-1-dimethylaminomethyl-6-methyl-isochroman-5-ol]
